Data published in article PMC4433810 (European journal of medicinal chemistry, 2015).

Tests used:
[1] = test system: FR (−) lung cancer cell line A549; experiment: Cell viability; assay type: cell-based
[2] = test system: tubulin acetylation (marker of HDAC6 activity) in KB cells; experiment: Western blot analysis of tubulin acetylation in KB cells; assay type: cell-based; conditions: 4 h, at IC50 doses and above
[3] = test system: histone H4 acetylation (intracellular marker of HDAC1 inhibition) in KB cells; experiment: Western blot analysis of histone H4 acetylation in KB cells; assay type: cell-based; conditions: 24 h
KB cells = experiment: Folic acid; assay type: cell-based; conditions: 25 μM of 11e, absence vs presence of folic acid (250 μM); p < 0.01
HDAC1 = HDAC1 (Homo sapiens, UniProt Q13547); experiment: SAMDI mass spectrometry HDAC activity assay, HDAC1; assay type: biochemical
Sequence of HDAC1 (Q13547 whole entry): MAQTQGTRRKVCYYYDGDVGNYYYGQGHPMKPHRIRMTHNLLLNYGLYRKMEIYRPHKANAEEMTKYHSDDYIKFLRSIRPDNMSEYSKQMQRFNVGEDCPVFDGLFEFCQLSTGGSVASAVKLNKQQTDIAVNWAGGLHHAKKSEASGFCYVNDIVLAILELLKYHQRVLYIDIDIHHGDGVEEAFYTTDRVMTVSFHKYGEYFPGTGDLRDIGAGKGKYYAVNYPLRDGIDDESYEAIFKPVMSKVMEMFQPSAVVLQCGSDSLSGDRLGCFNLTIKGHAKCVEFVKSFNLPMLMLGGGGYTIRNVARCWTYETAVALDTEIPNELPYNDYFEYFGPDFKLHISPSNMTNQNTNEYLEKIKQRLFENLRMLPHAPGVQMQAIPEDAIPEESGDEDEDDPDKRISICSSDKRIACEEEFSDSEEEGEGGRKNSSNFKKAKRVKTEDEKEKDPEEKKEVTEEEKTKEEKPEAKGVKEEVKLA

HDAC6 = biological target: T1, HDAC6 (Homo sapiens, UniProt Q9UBN7); experiment: SAMDI mass spectrometry HDAC activity assay, HDAC6; assay type: biochemical
T1 sequence (Q9UBN7 1-1215): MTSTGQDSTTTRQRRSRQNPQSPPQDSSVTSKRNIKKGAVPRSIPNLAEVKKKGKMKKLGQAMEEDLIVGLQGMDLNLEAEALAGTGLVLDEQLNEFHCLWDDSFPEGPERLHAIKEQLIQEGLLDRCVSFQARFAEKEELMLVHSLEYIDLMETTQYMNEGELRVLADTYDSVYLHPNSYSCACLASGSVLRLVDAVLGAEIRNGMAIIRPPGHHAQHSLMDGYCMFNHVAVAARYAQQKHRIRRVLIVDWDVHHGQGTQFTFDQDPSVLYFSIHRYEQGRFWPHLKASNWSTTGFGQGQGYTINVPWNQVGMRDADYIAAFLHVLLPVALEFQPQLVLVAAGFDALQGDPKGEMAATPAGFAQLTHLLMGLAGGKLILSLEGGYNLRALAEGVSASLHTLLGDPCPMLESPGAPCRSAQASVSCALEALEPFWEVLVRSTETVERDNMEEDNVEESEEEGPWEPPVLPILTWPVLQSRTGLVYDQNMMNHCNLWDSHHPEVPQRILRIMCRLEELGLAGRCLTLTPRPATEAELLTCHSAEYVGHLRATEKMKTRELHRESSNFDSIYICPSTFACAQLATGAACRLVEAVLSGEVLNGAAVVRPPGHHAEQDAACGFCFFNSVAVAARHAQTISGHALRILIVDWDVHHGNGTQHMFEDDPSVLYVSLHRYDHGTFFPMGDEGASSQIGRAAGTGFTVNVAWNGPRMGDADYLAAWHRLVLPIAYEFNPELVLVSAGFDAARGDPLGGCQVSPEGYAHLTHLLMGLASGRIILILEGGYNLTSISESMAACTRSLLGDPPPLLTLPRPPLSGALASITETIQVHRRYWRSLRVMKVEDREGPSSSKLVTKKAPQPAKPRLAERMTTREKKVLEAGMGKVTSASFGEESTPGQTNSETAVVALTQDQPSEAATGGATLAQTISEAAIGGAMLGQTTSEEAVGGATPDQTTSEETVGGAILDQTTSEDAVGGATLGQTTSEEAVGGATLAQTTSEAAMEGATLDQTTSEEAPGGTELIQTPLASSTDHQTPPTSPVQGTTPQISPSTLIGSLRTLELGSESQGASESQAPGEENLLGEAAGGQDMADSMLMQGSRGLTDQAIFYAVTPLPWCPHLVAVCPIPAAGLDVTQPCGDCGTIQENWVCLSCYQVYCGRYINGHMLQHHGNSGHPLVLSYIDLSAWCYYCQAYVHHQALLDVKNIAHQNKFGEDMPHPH

HDAC8 = biological target: T2, HDAC8 (Homo sapiens, UniProt Q9BY41); experiment: SAMDI mass spectrometry HDAC activity assay, HDAC8; assay type: biochemical
T2 sequence (Q9BY41 1-377): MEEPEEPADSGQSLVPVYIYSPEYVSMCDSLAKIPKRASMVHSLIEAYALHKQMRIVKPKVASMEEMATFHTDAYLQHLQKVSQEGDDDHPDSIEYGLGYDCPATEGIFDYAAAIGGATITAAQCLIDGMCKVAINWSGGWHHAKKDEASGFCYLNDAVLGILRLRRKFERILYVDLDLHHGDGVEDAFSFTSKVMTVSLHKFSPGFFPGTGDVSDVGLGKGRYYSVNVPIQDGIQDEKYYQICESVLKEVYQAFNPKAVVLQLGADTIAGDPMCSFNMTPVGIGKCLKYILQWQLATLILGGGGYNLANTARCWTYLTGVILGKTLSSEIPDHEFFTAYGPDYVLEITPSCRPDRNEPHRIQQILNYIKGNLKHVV

[4] = test system: KB (oral carcinoma) cells, FR (+); experiment: Cell viability; assay type: cell-based; conditions: up to 100 μM
[5] = test system: HeLa (cervical carcinoma) cells, FR (+); experiment: Cell viability; assay type: cell-based; conditions: up to 100 μM
[6] = SAHA 2 and 20μM, 11d 50 and 100μM, 11e 30 and 100μM

Row | SMILES | Activity against A549 cells, in words [1] | Acetylated tubulin levels [2] | Histone H4 acetylation [3, 6] | other results
1 | Nc1nc2ncc(CNc3ccc(C(=O)NCCCCCCC(=O)NO)cc3)nc2c(=O)[nH]1 [11d, 4-(((2-Amino-4-oxo-3,4-dihydropteridin-6-yl)methyl)amino)-N-(7-(hydroxyamino)-7-oxoheptyl)benzamide] | inactive | increase in acetylated tubulin levels | dose dependent increases in histone H4 acetylation | 
2 | Nc1nc2ncc(CNc3ccc(C(=O)NCCCCCCCC(=O)NO)cc3)nc2c(=O)[nH]1 [11e, 4-(((2-Amino-4-oxo-3,4-dihydropteridin-6-yl)methyl)amino)-N-(8-(hydroxyamino)-8-oxooctyl)benzamide] | inactive | increase in acetylated tubulin levels | dose dependent increases in histone H4 acetylation | Effect of folic acid on cytotoxicity (viability of KB cells) (KB cells): reduced the cytotoxicity
3 | O=C(CCCCCCC(=O)Nc1ccccc1)NO [SAHA, reference compound] |  | increase in acetylated tubulin levels | dose dependent increases in histone H4 acetylation | 
4 | CN1CCc2c(c3ccccc3n2Cc2ccc(C(=O)NO)cc2)C1 [Tubastatin A, reference compound] |  |  |  | Histone H4 acetylation ([3]; 14 μM): significant increase in H4 acetylation
5 | Nc1nc2ncc(CNc3ccc(C(=O)N[C@@H](CCC(=O)NO)C(=O)O)cc3)nc2c(=O)[nH]1 [compound 6, 2-(4-(((2-Amino-4-oxo-3,4-dihydropteridin-6-yl)methyl)amino)benzamido)-5-(hydroxyamino)-5-oxopentanoic acid] |  |  |  | HDAC1 inhibition, in words (HDAC1): inactive; HDAC6 inhibition, in words (HDAC6): inactive; HDAC8 inhibition, in words (HDAC8): inactive
6 | Nc1nc2ncc(CNc3ccc(C(=O)NO)cc3)nc2c(=O)[nH]1 [compound 7, 4-(((2-Amino-4-oxo-3,4-dihydropteridin-6-yl)methyl)amino)-N-hydroxybenzamide] |  |  |  | Cytotoxicity to KB cells, in words [4]: not cytotoxic; Cytotoxicity to HeLa cells, in words [5]: not cytotoxic; Histone H4 acetylation ([3]; 100 μM, relative to the control): little effect on H4 acetylation
